Test results from patent publication US20240139211A1, “METHODS AND COMPOSITIONS FOR TREATING AMYOTROPHIC LATERAL SCLEROSIS” (Amylyx Pharmaceuticals, Inc., priority 2022, published 2024).

Columns and labels:
hrCYP2C8 = target: T1, hrCYP2C8 (Homo sapiens, UniProt P10632); test: CYP reaction phenotyping with hrCYP2C8 (% remaining); format: in vitro ADME; conditions: human, 1 h, 5 µM, pH 7.4
T1 sequence (P10632 1-490): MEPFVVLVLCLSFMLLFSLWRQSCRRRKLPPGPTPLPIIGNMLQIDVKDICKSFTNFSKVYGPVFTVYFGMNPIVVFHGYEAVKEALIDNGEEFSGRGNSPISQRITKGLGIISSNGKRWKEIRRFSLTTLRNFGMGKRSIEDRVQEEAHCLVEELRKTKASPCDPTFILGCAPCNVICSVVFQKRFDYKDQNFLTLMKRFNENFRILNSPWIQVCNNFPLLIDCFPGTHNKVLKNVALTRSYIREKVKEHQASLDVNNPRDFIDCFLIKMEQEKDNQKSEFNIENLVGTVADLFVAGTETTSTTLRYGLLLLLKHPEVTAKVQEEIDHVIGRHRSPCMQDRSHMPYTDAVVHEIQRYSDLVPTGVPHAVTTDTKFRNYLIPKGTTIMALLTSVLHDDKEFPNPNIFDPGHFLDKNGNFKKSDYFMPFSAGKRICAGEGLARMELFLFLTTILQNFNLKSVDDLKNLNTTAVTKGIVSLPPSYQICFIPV

hrCYP2C9 = hrCYP2C9 (Homo sapiens, UniProt P11712); test: CYP reaction phenotyping with hrCYP2C9 (% remaining); format: in vitro ADME; conditions: human, 1 h, 5 µM, pH 7.4
hrCYP2D6 = hrCYP2D6 (Homo sapiens, UniProt P10635); test: CYP reaction phenotyping with hrCYP2D6 (% remaining); format: in vitro ADME; conditions: human, 1 h, 5 µM, pH 7.4
[1] = Relevant plasma concentrations for in vitro transporter assessment; format: in vivo
OAT3 = target: T2, OAT3 (Homo sapiens, UniProt Q8TCC7); test: in vitro
T2 sequence (Q8TCC7 1-542): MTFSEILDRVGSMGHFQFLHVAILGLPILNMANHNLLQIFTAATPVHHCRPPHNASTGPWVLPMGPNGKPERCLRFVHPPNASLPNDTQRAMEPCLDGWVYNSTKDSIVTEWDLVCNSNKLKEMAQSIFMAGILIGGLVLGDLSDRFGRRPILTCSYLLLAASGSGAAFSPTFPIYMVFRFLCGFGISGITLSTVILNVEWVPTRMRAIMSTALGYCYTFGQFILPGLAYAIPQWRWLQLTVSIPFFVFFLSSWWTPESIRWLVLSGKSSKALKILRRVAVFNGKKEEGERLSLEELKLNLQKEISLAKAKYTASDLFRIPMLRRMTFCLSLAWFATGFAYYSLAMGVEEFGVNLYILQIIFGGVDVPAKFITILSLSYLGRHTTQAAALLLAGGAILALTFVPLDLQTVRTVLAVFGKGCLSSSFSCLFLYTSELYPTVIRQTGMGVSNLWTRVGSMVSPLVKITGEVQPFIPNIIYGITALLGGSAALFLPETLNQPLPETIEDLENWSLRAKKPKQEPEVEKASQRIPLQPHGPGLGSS

MATE1 = target: T3, MATE1 (Homo sapiens, UniProt Q96FL8); test: in vitro
T3 sequence (Q96FL8 1-570): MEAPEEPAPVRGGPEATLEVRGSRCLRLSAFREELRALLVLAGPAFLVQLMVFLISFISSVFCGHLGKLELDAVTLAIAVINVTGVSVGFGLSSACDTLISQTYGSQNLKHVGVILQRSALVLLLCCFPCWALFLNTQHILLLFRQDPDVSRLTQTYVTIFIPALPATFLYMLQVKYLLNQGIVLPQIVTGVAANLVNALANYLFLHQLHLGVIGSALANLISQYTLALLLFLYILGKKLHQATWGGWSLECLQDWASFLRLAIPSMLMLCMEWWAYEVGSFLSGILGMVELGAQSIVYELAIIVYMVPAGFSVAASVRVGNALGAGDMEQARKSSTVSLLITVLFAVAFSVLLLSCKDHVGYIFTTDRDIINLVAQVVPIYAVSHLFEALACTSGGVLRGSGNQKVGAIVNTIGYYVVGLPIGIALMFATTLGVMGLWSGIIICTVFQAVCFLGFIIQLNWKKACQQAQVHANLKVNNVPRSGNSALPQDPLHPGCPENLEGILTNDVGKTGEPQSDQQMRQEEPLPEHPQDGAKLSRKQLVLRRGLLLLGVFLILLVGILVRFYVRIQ

[2] = Rat drug-drug interaction study TDF + AMX0035: plasma pharmacokinetics; conditions: Day 5, AMX0035 + TDF 840/25 mg/kg oral, male Sprague Dawley rats; individual animals; BLQ = <50 ng/mL

Chain of hrCYP2D6 (P10635 whole entry): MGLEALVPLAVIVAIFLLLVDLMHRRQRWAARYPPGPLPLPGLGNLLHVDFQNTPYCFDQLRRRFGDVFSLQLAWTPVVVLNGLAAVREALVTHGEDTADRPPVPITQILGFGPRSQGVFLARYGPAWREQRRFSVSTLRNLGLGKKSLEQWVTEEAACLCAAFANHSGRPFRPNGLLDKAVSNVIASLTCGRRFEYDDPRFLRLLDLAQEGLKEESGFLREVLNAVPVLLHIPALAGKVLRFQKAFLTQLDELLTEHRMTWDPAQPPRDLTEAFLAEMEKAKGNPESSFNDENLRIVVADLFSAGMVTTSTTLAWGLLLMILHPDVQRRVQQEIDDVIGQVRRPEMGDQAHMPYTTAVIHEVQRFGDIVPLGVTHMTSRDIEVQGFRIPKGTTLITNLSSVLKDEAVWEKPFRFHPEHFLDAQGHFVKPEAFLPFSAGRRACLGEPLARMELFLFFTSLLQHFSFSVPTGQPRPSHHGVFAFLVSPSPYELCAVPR
Chain of hrCYP2C9 (P11712 whole entry): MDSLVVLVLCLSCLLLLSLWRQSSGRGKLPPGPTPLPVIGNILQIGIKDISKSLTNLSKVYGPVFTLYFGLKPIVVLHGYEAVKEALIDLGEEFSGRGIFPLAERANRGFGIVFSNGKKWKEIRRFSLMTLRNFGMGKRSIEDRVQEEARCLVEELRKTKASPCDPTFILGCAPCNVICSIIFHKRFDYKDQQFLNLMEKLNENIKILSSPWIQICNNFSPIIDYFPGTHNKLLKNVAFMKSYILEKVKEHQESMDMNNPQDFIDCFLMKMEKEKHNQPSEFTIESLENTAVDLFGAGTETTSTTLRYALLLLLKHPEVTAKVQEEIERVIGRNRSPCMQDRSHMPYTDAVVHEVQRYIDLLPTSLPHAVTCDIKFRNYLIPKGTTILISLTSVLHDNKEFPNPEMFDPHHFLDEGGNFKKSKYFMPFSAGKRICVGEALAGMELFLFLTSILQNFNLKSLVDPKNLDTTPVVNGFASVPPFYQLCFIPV

With `O=C(O)CCCc1ccccc1` [PB, sodium phenylbutyrate] the “% remaining after 60 minutes” value (hrCYP2C8) was “greater than 90%”, the “% remaining after 60 minutes” value (hrCYP2C9) was “greater than 90%” and the “% remaining after 60 minutes” value (hrCYP2D6) was “greater than 90%”. For the same compound, the “Plasma Cmax (total [I]1)” value ([1]; component of AMX0035, highest oral dose TUDCA 1000 mg, PB 3000 mg) was 826 µM, the “Unbound [I]m, max” value ([1]; projected unbound Iin, max) was 326 µM and the “Unbound Cmax (Unbound [I]1)” value ([1]; projected, from total Cmax and plasma protein binding) was 148 µM. For the same compound, the potency estimated from few doses (OAT3) was less than 25 µM, the potency estimated from few doses (MATE1) was less than 250 µM and the “Plasma Concentration of analyte at 8.0 hr” value [2] was 102 ng/mL.
